Data on one compound can be found in patent US20190225643A1, “NOVEL NUCLEOSIDE ANALOGS AND USE THEREOF IN THERAPEUTIC TREATMENT” (CORNELL UNIVERSITY, priority 2016, published 2019).

Where only a bound is given, the exact number is not on record here.

In one series the test system is PEL cells (BC3). Briefly: Viability after zVAD-FMK pan-caspase inhibitor pre-treatment. It counts as cell-based, human. The settings on record: 80 μM zVAD-FMK pre-treatment, 48 hours. As to the method: (§1) Cell viability assays were performed by plating log-phase cells in RPMI complete media with 20% FBS at 1*10^5 cells/mL, with concentrations of 6-ETI or phospho-6-ETI ranging from 0.1 nM to 100 μM. ATP content at 24, 48 and 72 hours post-treatment was measured by the CellTiter-Glo kit (Promega, Madison, Wis.), or by Trypan blue assay as indicated. The LC50 for 6-ETI in each cell line was determined using online EC50 software at changbioscience.com or using GraphPad Prism to determine the LC50 for 6-ETI, phospho-6-ETI and nucleoside analogs in MM cell lines and primary MM patient samples.

For a further series, the system named is U266 (MM). Briefly: cells. The settings on record: Homo sapiens, U-266, 48 h, read-out: LC50 U266 (MM) in nM. It counts as cell-based. The method, then: as §1
Another series relates to BC3 (PEL). Briefly: cells. The settings on record: Homo sapiens; 48 hours, CellTiter-Glo; read-out: LC50 BC3 (PEL). It is filed as cell-based. As to the method:
as §1

The subject of another series is IBL-1 (EBV+ DLBCL). Nature of the series: cells. It counts as cell-based. The settings on record: Homo sapiens, 48 h, read-out: LC50 IBL-1 (DLBCL). The method, then:
as §1

Series [1] deals with BC3NFRen-luc #3 PEL xenograft. Nature of the series: PEL xenograft model (BC3NFRen-luc #3 in NOD-SCID mice). It counts as in vivo. As to the method:
The BC3 in vivo xenograft model was set up as previously described (6). Essentially, ˜4-6 week old male NOD-SCID mice (Jackson Labs Stock# 001303) were injected intraperitoneally (I.P.) with 1*10^7 BC3NFRen-luc #3 cells and followed by in vivo imaging every three days. After imaging on day 5 to confirm establishment of the tumor, the mice were randomized to vehicle, low dose and high dose cohorts, with average tumor burden distributed evenly across the groups. Each dose cohort contained 10 mice. Mice were treated for nine days beginning at randomization with vehicle (PBS-Tween80), low dose 6-ETI (150 mg/kg/day), or high dose 6-ETI (300 mg/kg/day). Mice were treated with 200 mg/kg of the 6-ETI analogs (phospho-6ETI and 6-ETI cAMP) for 9 days. We monitored mice for tumor growth by live imaging and weighing, with sacrifice point determined to be a net gain or loss of 10% body weight over a week. Upon reappearance of refractory tumors, mice were re-treated for a further 9-day interval, and followed for a total of 100 days. Compound effects were assessed on overall survival, progression-free survival and tumor burden by Kaplan-Meier curves generated using GraphPad Prism software, and determined p values by 2-tailed analysis with log-rank tests.

The subject of series [2] is PA-Tu-8988T pancreatic adenocarcinoma cell line. It counts as cell-based, human. As to the method:
as §1
Pancreatic adenocarcinoma PA-Tu-8988T cell line was kindly provided by Lewis Cantley's lab (Weill Cornell Medicine). […] of ADK in this cell line was achieved by transducing these cells with ADK shRNA Lentiviral Particles (Santa crux) and selecting the stable cell line using 2 μg/ml Puromycin.

For series [3], the system named is normal plasma cells (CD19-, CD138+) from human tonsils. Briefly: Toxicity on normal primary tonsillar lymphocytes. It counts as cell-based. The settings on record: 1 μM and 10 μM, 24 hours. The method, then: Primary human tonsil specimens were obtained from the Weill Cornell/New York Presbyterian Institutional Biobank. Lymphocytes were isolated from human tonsil tissue by dissection and maceration in RPMI media. Lymphocyte-containing media was passed through a 70 μm filter and pelleted at 400 g for 7 minutes. RBC were lysed for 5 minutes in RBC lysing solution (0.15M ammonium chloride, 10 mM potassium bicarbonate, […]). After dilution to 50 ml with RPMI, lymphocytes were filtered through a […] filter, counted and pelleted a second time. Total B cells were isolated using magnetic cell sorting according to manufacturer instructions (Miltenyi Cat#130-091-151). Cells were plated at 2 million cells/ml in RPMI with 20% FBS and 100 μg/ml Primocin (Invivogen) and laid over gamma-irradiated CDW32 feeder cells. Cells were then treated with DMSO, 1 μM or 10 μM 6-ETI for 24 hrs. […] Data was acquired on a BD LSR2 Flow Cytometer and analyzed using FlowJo software. The frequency of plasma cells was assessed based on singlet-gated cells expressing CD138.

For a further series, the system named is PEL cells (BC1, BC3). Nature of the series: Immunoblotting of PARP cleavage, LC3B cleavage and γH2AX in PEL cells. It is filed as cell-based, human. The method, then:
For all intracellular signaling studies, cell lines were plated at 2*10^5 cells/mL or at indicated densities in RPMI-1640 with 20% FBS, and treated with the stated concentrations of 6-ETI, from 6 to 48 hours. Immunoblotting was performed using the following antibodies: PARP (BD Pharmingen, 556494), LC3B (Cell Signaling, 2775S), phospho-l-listone H2AX.X S139 (Cell Signaling, 2577S), GAPDH (Gene Tex, GTX100118), ADK (Santa Cruz, sc-365470) vFLIP 6/14 antibody was a gift from Mary Collins at University College of London, vCyclin (Abcam, ab12208), LANA (Advanced Biotechnologies, 13-210-100), β-Actin (Sigma A5316), p65 (Cell Signaling C22B4, p50 (Cell Signaling 3035), October-1 (Cell Signaling 4428), p-IκBα (Santa Cruz 3-9 sc-8404), IκBα (Santa Cruz C-21 sc-371), pIKKα/β (ser 176)(Santa Cruz sc-21661), IKKα (Santa Cruz H-744 sc-7218).
In general terms: A western blot detects proteins with antibodies after separation by electrophoresis.

In the case of `CCSc1ncnc2c1ncn2[C@@H]1O[C@H](CO)C(O)[C@@H]1O` (stereo partly shown) [Compound 6-ETI, 6-ethylthioinosine], the “caspase dependence of induced cell death” value in the series on PEL cells (BC3) is reported as “largely caspase-independent”. In addition, the CC50 in the series with U266 (MM) was 437 nM; in the series with BC3 (PEL), 49.8 nM; in the series with IBL-1 (EBV+ DLBCL) it was more than 100000 nM. In series [1] (150 or 300 mg/kg/day), the toxicities from treatment result is on record as “no obvious toxicities”. In addition, the “tumor response by in vivo luciferase imaging” value in series [1] (150 or 300 mg/kg/day for 9 days, within three days of treatment) is “striking and immediate regression of the implanted xenograft”. The progression-free survival result in series [1] (150 or 300 mg/kg/day, p<0.0001, 100 days) is “startling protective effect”. Moreover, in series [1] (low dose and high dose versus untreated), the overall survival entry was “significant prolonged overall survival”. In series [2], the “change in LC50 on ADK knockdown” value is listed as “a log increase in LC50”. In addition, the “total number or proportion of normal plasma cells” value in series [3] is reported as “did not find a decrease in the total number or proportion of plasma cells”. In addition, in the series on PEL cells (BC1, BC3) (1 μM and 10 μM, 24 hours), the “DNA damage marker γH2AX” value is “appearance of γH2AX”. Moreover, in the series with PEL cells (BC1, BC3) (1 μM, 24 hr), the “autophagy (LC3B cleavage product)” value is “some induction of autophagy”. Besides, in the series with PEL cells (BC1, BC3) (BC1 and BC3, 1 μM, 24 hrs), the “apoptosis (PARP cleavage)” value is “small but observable increases in apoptosis”.
